From publication PMC5821946, “Immunomodulatory Effects of Diterpene Quinone Derivatives from the Roots of Horminum pyrenaicum in Human PBMC” (Oxidative Medicine and Cellular Longevity, 2018)

Tests used:
[1] = test system: neopterin formation by GTP-cyclohydrolase 1 (GTP-CH-I) in PBMC; assay: Neopterin formation in PBMC supernatants (ELISA) after 48 h treatment; format: cell-based, human; conditions: PHA-stimulated PBMC; data not shown; insufficient repetitions for (1) and (3)
Description: The study was performed in accordance with the Declaration of Helsinki. PBMC were isolated from healthy donors who gave written consent that their donated blood may be used for scientific purposes, in case when it was not selected for transfusion. The PBMC were isolated by density gradient centrifugation as described earlier. After isolation, the cells were washed three times with phosphate buffered saline containing 1 μM ethylenediaminetetraacetic acid and subsequently they were maintained in RPMI 1640 (Sigma Aldrich, Vienna, Austria) supplemented with 2 mM L-glutamine, 10% heat-inactivated fetal calf serum (Biochrom, Germany) and 50 μg/mL gentamicin (Lonza-BioWhittaker, USA), at 37°C in a humidified atmosphere containing 5% CO2.
(§1) The cells were seeded in 48-well plates (1.5 × 10^6 cells/mL/well) and treated either with increasing concentrations of the extract, the individual fractions or the pure compounds, dissolved in DMSO. The PBMC were either stimulated with 10 μg/mL of the mitogen lectin phytohaemagglutin (PHA) after 30 minutes of treatment, or were left unstimulated. In addition to PHA, the stimulatability of the PBMC was controlled for each experiment by treatment with the lectin concanavalin A (ConA) at a concentration of 10 μg/mL. After 48 h of incubation, cell culture supernatants were collected and stored at −20°C until analysis. In addition, 1-methyl-D-tryptophan (Sigma-Aldrich, Vienna, Austria) was used as a postive control for the suppression of IDO-1 acitivity.
Neopterin concentrations were measured by ELISA (BRAHMS, Germany), according to the manufacturers' instructions with the detection limit of 2 nmol/L.
The half maximal (50% inhibitory) concentration (IC50) was calculated by using the CalcuSyn software (Biosoft, UK) according the concept of Chou and Talalay. […] P-values below 0.05 were considered to indicate significance. Results are expressed as percent of unstimulated and PHA-stimulated control cells and are shown as mean ± standard error of the mean (SEM).

[2] = biological target: T1, indoleamine 2,3-dioxygenase-1 (IDO-1) (Homo sapiens, UniProt P14902); assay: Tryptophan breakdown to kynurenine (Kyn/Trp by HPLC) in PBMC supernatants after 48 h treatment; format: cell-based
T1 construct: PBMC were isolated from healthy donors who gave written consent that their donated blood may be used for scientific purposes; endogenous in cells; host or cells: primary human PBMC from healthy blood donors, stimulated with 10 μg/mL PHA
T1 sequence (P14902 whole entry): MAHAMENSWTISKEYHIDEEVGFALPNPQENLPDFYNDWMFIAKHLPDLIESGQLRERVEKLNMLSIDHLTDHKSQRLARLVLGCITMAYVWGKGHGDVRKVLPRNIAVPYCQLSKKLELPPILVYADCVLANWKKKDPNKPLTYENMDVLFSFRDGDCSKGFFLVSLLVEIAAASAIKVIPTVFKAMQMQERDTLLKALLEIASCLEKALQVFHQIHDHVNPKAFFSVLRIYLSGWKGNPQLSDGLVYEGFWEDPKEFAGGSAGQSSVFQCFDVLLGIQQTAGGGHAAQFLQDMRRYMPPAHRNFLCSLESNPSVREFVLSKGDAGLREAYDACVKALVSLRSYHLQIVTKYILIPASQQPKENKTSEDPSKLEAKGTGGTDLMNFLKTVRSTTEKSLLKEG
Description: The study was performed in accordance with the Declaration of Helsinki. PBMC were isolated from healthy donors who gave written consent that their donated blood may be used for scientific purposes, in case when it was not selected for transfusion. The PBMC were isolated by density gradient centrifugation as described earlier.
as §1, with “The” for “The cells were seeded in 48-well plates (1.5 × 10^6 cells/mL/well) and treated either with increasing concentrations of the extract, the individual fractions or the pure compounds, dissolved in DMSO. The”
Briefly, the HPLC analysis of tryptophan and kynurenine was performed on a ProStar Varian system (USA) using rp-18 columns (Merck, Germany) and acetate buffer as eluent (flow-rate: 0.9 mL/min) according to the protocol described earlier. 3-Nitro-L-tyrosine (Sigma Aldrich, Austria) was used as an internal standard. Kynurenine and tryptophan standards were purchased from Sigma-Aldrich (Austria). Kynurenine and 3-nitro-L-tyrosine were detected by UV-absorbance at 360 nm wavelength (Shimadzu SPD-6A UV detector, Austria), tryptophan was detected by its fluorescence with an excitation wavelength of 286 nm and an emission wavelength of 366 nm (ProStar 360 detector, Varian, USA). The Kyn/Trp was calculated, which is an estimate of IDO-1 activity and expressed in μmol Kyn / mmol Trp. The sensitivity of the measurements was 0.5 μmol/L kynurenine and 0.1 μmol/L tryptophan.
P-values below 0.05 were considered to indicate significance. Results are expressed as percent of unstimulated and PHA-stimulated control cells and are shown as mean ± standard error of the mean (SEM).

| Structure (SMILES) | Inhibition of neopterin formation (in words) [1] | IC50 [2] |
| --- | --- | --- |
| CC(C)C1=C(O)C(=O)C2=C(C1=O)[C@H](O)C[C@H]1C(C)(C)CCC[C@]21C [compound 1, horminone] | inhibition of neopterin formation | 346 µM |
| CC(=O)O[C@@H]1C[C@H]2C(C)(C)CCC[C@]2(C)C2=C1C(=O)C(C(C)C)=C(O)C2=O [compound 2, 7-O-acetylhorminone] | inhibition of neopterin formation | 71.7 µM |
| COC1=C(C(C)C)C(=O)c2c(O)cc3c(c2C1=O)C=CC(=O)C3(C)C [compound 3, agastaquinone] | no dose-dependent effect | 46.3 µM |
| COc1c(O)c2c(c(O)c1C(C)C)C(=O)C[C@H]1C(C)(C)CCC[C@]21C [compound 6, inuroyleanol] | no dose-dependent effect | – |
| C=C1[C@@H](C)CC[C@]2(C)c3c(O)c(OC)c(C(C)C)c(O)c3C(=O)C[C@@H]12 [compound 7, agastol] | minor | 165 µM |
| COC1=C(C(C)C)C(=O)c2c(O)cc3c(c2C1=O)C=CCC3(C)C [compound 8, 3-deoxyagastaquinone] | inhibition of neopterin formation | 79.5 µM |
